Measured values from PubChem BioAssay (NCI).
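Cells were grown in 96-well plates and exposed to each compound for 48 hours at five concentrations; endpoints were interpolated linearly between bracketing concentrations, or set to the highest concentration if not reached. At the GI50, growth is halved. TGI is the concentration that stops growth completely.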

How the values were obtained:
Experiment in all cases: NCI tumour cell line growth inhibition, 48 h
[1] = tested on: DMS 273 small cell lung
[2] = tested on: P388/ADR leukemia
[3] = tested on: KM20L2 colon
[4] = tested on: DU-145 prostate
[5] = tested on: RXF-631 renal
[6] = tested on: LXFL 529 NSCLC
[7] = tested on: MDA-N
[8] = tested on: MDA-MB-231 breast

## COc1ccc2c3c1OC1CC(O)C=CC31CCN(C)C2 (stereo not drawn)
[1]
  TGI: > 150 µM
[2]
  TGI: > 150 µM
[3]
  TGI: > 150 µM

## CCCC/C=C1\CCC(CN2CCCCC2)C1=O (stereo not drawn)
[4]
  TGI: > 100 µM
[3]
  TGI: 32.9 µM
[5]
  TGI: > 65.2 µM
[6]
  TGI: 3.26 µM
[7]
  TGI: > 100 µM
[8]
  TGI: > 100 µM

## CCOC(=O)/C(O)=C1\C(=O)N(C)C(=O)C1c1ccc(OC)c(OC)c1 (stereo not drawn)
[1]
  TGI: > 100 µM
[2]
  TGI: > 31.6 µM
[3]
  TGI: > 100 µM

## O=C(Nc1ccccc1F)c1c(O)nc2sccn2c1=O
[4]
  TGI: > 10 µM
[7]
  TGI: > 10 µM
[8]
  TGI: > 10 µM

## O=C1C(Br)=CC2([N+](=O)[O-])CCNc3c(O)c4c5c(c3C2=C1Br)=NCCC=5C=N4 (stereo not drawn)
[1]
  TGI: 6.92 µM
[2]
  TGI: 2.35 µM
[3]
  TGI: 10.4 µM

## COc1ccc2[nH]c(C(=O)N3CC(CCl)c4ccc(N)cc43)cc2c1 (stereo not drawn)
[7]
  TGI: 0.347 µM
[8]
  TGI: 0.545 µM

## COC(=O)/C=C\Sc1ccn(/C=C\C(=O)OC)c(=S)n1
[4]
  TGI: > 100 µM
[7]
  TGI: > 100 µM
[8]
  TGI: 56.7 µM

## O=C(CCCn1cnc([N+](=O)[O-])n1)NCCn1ccnc1[N+](=O)[O-]
[4]
  TGI: > 100 µM
[7]
  TGI: > 100 µM

## CC1(C)OP23(NC(=O)OC2(C(F)(F)F)c2ccccc2O3)OC1(C)C (stereo not drawn)
[1]
  TGI: > 100 µM
[6]
  TGI: > 100 µM

## CC(=O)O[C@H]1CC[C@@]2(C)C(=CC[C@@H]3[C@@H]2CC[C@]2(C)C(c4cccnc4)=CC[C@@H]32)C1
[4]
  GI50: 22.3 µM
  TGI: > 100 µM
[8]
  GI50: 5.23 µM
  TGI: 33.7 µM

## N/N=C(\C(=O)Nc1c(Cl)cc([N+](=O)[O-])cc1Cl)C(c1cnc2ccc([N+](=O)[O-])cc2n1)[N+](=O)[O-] (stereo not drawn)
[1]
  TGI: > 100 µM
[3]
  TGI: > 100 µM
